# Patent US20110105389A1 (priority 2009, published 2011)
# Biological target: T1, GHS-R1a receptor (HEK293 cells expressing GHS-R1a receptor) (Homo sapiens, UniProt Q92847)
# T1 construct: host or cells: HEK293
# Assay: Fluorescence functional assay (ghrelin receptor), Method B2, agonist and antagonist mode
# Format: cell-based
# Settings: functional activity as an antagonist at the ghrelin receptor, Methods B2 and B3
# Experimental: • 1. ImageTrak Epi-Fluorescence system (Perkin-Elmer) • 2. MultiDrop TiterTek • 3. CO2 incubators: 5% CO2, humidified, 37° C.
# • 1. Hanks' BSS without phenol red (Life Technologies) • 2. Hepes buffer • 3. Probenecid (Sigma) • 4. […] Falcon cell culture 96-well black/clear bottom plates • 6. 0.05% trypsin-EDTA • 7. Cells: HEK293 cells expressing GHS-R1a receptor (Perkin-Elmer BioSignal) were grown in DMEM (Dulbecco's Modified Eagles Medium) with 10% FBS, 1% sodium pyruvate, 1% NEAA and 400 μg/mL geneticin • 8. […] [D-Lys^3]-GHRP-6 (reference antagonist, Phoenix #031-22) • 10. Assay buffer: HBSS-20 mM Hepes containing 2.5 mM probenecid and 0.1% BSA (bovine serum albumin); pH 7.4
# Stock solutions of compounds (10 mM in 100% DMSO) were provided frozen on dry ice and stored at −80° C. prior to use. […] Assay plates were then prepared by appropriate dilution in assay buffer.
# Typical Final Test Concentrations (N=10) for Test Compounds (agonist):
# Typical Final Test Concentrations (N=10) for Test Compounds (antagonist):
# Cells were maintained in culture as indicated above. The cells were harvested at a confluency of 70-90% the day before the experiment. Growth medium was removed and the cells rinsed briefly with PBS without Ca^+2 and Mg^+2. 0.05% Trypsin was added and the plates incubated at 37° C. for 5 min to detach the cells. DMEM medium supplemented with 10% FBS was added to inactivate the trypsin and determine the cell concentration. The inoculum was adjusted to a final concentration of 200 cells/μL and dispensed at 200 μL per well into a 96-well block plate. The plates were, incubated at 37° C. overnight.
# The plates were removed from the incubator and the media removed by inversion of the plates. Calcium-3 dye, 50 μL, was loaded and then incubated for 1 h at 37° C. The plate was again inverted and then 25 μL of assay buffer added. The plates were then transferred to the ImageTrak system for analysis. For agonist testing, after reading for ten (10) sec, 25 μL of 2× test compound or control was injected into the assay plate. Fluorescence was monitored for an additional 50 sec. A reading was taken every two (2) seconds for a total of 30 readings per assay point.
# For antagonist testing, after reading for ten (10) sec, 12.5 μL of 3× test compound or control was injected into the assay plate and allowed to react for three (3) min.
# Concentration response curves were analyzed using GraphPad Prism (GraphPad Software, San Diego, Calif.) by non-linear regression analysis (sigmoidal dose-response). EC50 values are calculated using GraphPad.
# Emax values were calculated using the following formula: […]
# Concentration response curves were analyzed using GraphPad Prism (GraphPad Software, San Diego, Calif.) by non-linear regression analysis (sigmoidal dose-response). IC50 values are calculated using GraphPad.
# Imax values were calculated using the following formula: […]
# T1 sequence (Q92847 whole entry): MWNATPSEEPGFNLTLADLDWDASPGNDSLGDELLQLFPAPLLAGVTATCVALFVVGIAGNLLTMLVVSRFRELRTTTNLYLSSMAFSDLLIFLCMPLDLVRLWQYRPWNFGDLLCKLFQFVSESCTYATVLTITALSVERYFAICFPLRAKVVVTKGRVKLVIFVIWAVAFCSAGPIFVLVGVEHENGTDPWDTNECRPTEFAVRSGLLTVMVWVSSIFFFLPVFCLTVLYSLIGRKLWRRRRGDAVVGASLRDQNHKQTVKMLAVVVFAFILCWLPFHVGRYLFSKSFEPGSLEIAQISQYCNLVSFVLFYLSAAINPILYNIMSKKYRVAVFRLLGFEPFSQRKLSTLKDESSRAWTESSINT
row,SMILES,Antagonist Activity
1,CCC(C)[C@@H]1NCCOc2ccccc2/C=C/CNC(=O)[C@@H](Cc2cccc(O)c2)NC(=O)[C@H](C(C)O)N(C)C1=O (some centres unmarked) [Compound 1351],C (C = 10-100 nM)
2,CC(C)[C@@H]1NCCOc2ccccc2CC[C@@H](C)NC(=O)[C@@H](Cc2cccc(O)c2)NC(=O)[C@H](C(C)O)N(C)C1=O (some centres unmarked) [Compound 1352],C (C = 10-100 nM)
3,CC(C)[C@@H]1NCCOc2ccccc2CC[C@@H](C)NC(=O)[C@@H](Cc2ccccc2)NC(=O)[C@H](C(C)O)N(C)C1=O (some centres unmarked) [Compound 1361],B (B = 1-10 nM)
4,CC(C)[C@@H]1NCCOc2cc(F)ccc2CCCNC(=O)[C@@H](Cc2ccccc2)NC(=O)[C@H](C(C)O)N(C)C1=O (some centres unmarked) [Compound 1363],C (C = 10-100 nM)
5,CC(C)[C@@H]1NCCOc2cc(F)ccc2CCCNC(=O)[C@@H](Cc2cccc(F)c2)NC(=O)[C@H](C(C)O)N(C)C1=O (some centres unmarked) [Compound 1366],B (B = 1-10 nM)
6,CC(O)[C@H]1C(=O)N[C@H](Cc2ccccc2)C(=O)N[C@H](C)CCc2ccccc2OCCN[C@@H](C(C)(C)C)C(=O)N1C (some centres unmarked) [Compound 1370],C (C = 10-100 nM)
7,CC(C)[C@@H]1NCCOc2ccc(F)cc2CC[C@@H](C)NC(=O)[C@@H](Cc2ccccc2)NC(=O)[C@H](C(C)O)N(C)C1=O (some centres unmarked) [Compound 1380],B (B = 1-10 nM)
8,CC(C)[C@@H]1NCCOc2cccc(F)c2CC[C@@H](C)NC(=O)[C@@H](Cc2ccccc2)NC(=O)[C@H](C(C)O)N(C)C1=O (some centres unmarked) [Compound 1381],B (B = 1-10 nM)
9,CC(C)[C@@H]1NCCOc2ccccc2CC[C@@H](C)NC(=O)[C@@H](Cc2ccc(O)c(Cl)c2)NC(=O)[C@H](C(C)O)N(C)C1=O (some centres unmarked) [Compound 1383],B (B = 1-10 nM)
10,CC(C)[C@@H]1NCCOc2ccccc2CC[C@@H](C)NC(=O)[C@@H](Cc2cccnc2)NC(=O)[C@H](C(C)O)N(C)C1=O (some centres unmarked) [Compound 1384],C (C = 10-100 nM)
11,CCC[C@@H]1NCCOc2ccccc2CC[C@@H](C)NC(=O)[C@@H](Cc2ccccc2)NC(=O)[C@H](C(C)O)N(C)C1=O (some centres unmarked) [Compound 1394],D (D = 100-500 nM)
12,CC1CCc2ccccc2OCCNC(C(C)C)C(=O)N(C)C(C(C)O)C(=O)NC(Cc2ccccc2O)C(=O)N1 (centres unmarked) [Compound 1401],B (B = 1-10 nM)
13,CC(C)[C@@H]1NCCOc2ccccc2CC[C@@H](C(F)(F)F)NC(=O)[C@@H](Cc2ccccc2)NC(=O)[C@H](C(C)O)N(C)C1=O (some centres unmarked) [Compound 1402],B (B = 1-10 nM)
14,CC(C)[C@@H]1NCCOc2ccccc2CC[C@@H](C)NC(=O)[C@@H]([C@H](C)c2ccccc2)NC(=O)[C@H](C(C)O)N(C)C1=O (some centres unmarked) [Compound 1404],B (B = 1-10 nM)
15,CC(C)[C@@H]1NCCOc2ccccc2CC[C@@H](C)NC(=O)[C@@H](Cc2cc(F)c(F)c(F)c2)NC(=O)[C@H](C(C)O)N(C)C1=O (some centres unmarked) [Compound 1411],B (B = 1-10 nM)
16,CC(C)[C@@H]1NCCOc2ccccc2CC[C@@H](C)NC(=O)[C@@H](Cc2csc3ccccc23)NC(=O)[C@H](C(C)O)N(C)C1=O (some centres unmarked) [Compound 1416],A (A <1 nM)
17,CC(C)[C@@H]1NCCOc2ccc(F)cc2CC[C@@H](C)NC(=O)[C@@H](Cc2ccc(F)cc2)NC(=O)[C@H](C(C)O)N(C)C1=O (some centres unmarked) [Compound 1436],B (B = 1-10 nM)

# Biological target: T2, human ghrelin receptor (GRLN, growth hormone secretagogue receptor, hGHS-R1a) (Homo sapiens, UniProt Q92847)
# T2 construct: purchased PerkinElmer BioSignal #RBHGHSM, lot#1887; host or cells: HEK-293 cells, stably transfected (membranes)
# Assay: Competitive radioligand binding assay (ghrelin receptor), Method B1
# Settings: Ghrelin receptor binding activity, Method B1
# Experimental: Multiscreen Harvest plates-GF/C (Millipore, #MAHFC1H60) • 4. […] Bottom seal (Millipore, #MATAH0P00) • 7. […] Binding Buffer: 25 mM Hepes (pH 7.4), 1 mM CaCl2, 5 mM MgCl2. 2.5 mM EDTA, 0.4% BSA
# Competition experiments were performed in a 300 μl filtration assay format. • 1. 220 μL of membranes diluted in binding buffer • 2. 40 μL of compound diluted in binding buffer • 3.
# Compounds were provided frozen on dry ice at a stock concentration of 10 mM diluted in 100% DMSO and stored at −80° C. until the day of testing. On the test day, compounds were allowed to thaw at rt overnight and then diluted in assay buffer according to the desired test concentrations. Under these conditions, the maximal final DMSO concentration in the assay was 0.1%.
# Plates were sealed with TopSeal-A, vortexed gently and incubated at rt for 30 min. The reaction was arrested by filtering samples through Multiscreen Harvest plates (pre-soaked in 0.5% polyethyleneimine) using a Tomtec Harvester, washed 9 times with 500 μL of cold 50 mM Tris-HCl (pH 7.4, 4° C.), and then plates were air-dried in a fumehood for 30 min. A bottom seal was applied to the plates prior to the addition of 25 μL of MicroScint-0 to each well. Plates were than sealed with TopSeal-A and counted for 30 sec per well on a TopCount Microplate Scintillation and Luminescence Counter (PerkinElmer) using a count delay of 60 sec. Results were expressed as counts per minute (cpm).
# Data were analyzed by GraphPad Prism (GraphPad Software, San Diego, Calif.) using a variable slope non-linear regression analysis. […] Dmax values were calculated using the following formula: […]
# T2 sequence (Q92847 whole entry): as above
row,SMILES,IC50
1,CC[C@@H]1CCc2c(NS(C)(=O)=O)cccc2OCCN[C@@H](C(C)C)C(=O)N(C)[C@@H](C(C)O)C(=O)N[C@H](Cc2ccccc2)C(=O)N1 (some centres unmarked) [Compound 1866],> 500 nM
2,CC(O)[C@H]1C(=O)N[C@H](Cc2ccccc2)C(=O)N[C@H](C)CCc2ccc(F)cc2O[C@H](C)CN[C@@H](C2(C)CC2)C(=O)N1C (some centres unmarked) [Compound 1869],10 to 100 nM
3,CC(O)[C@H]1C(=O)N[C@H](Cc2ccc(F)cc2)C(=O)N[C@H](C)CCc2ccc(F)cc2O[C@H](C)CN[C@@H](C2(C)CC2)C(=O)N1C (some centres unmarked) [Compound 1870],10 to 100 nM
4,CC(O)[C@H]1C(=O)N[C@H](Cc2ccc(Cl)cc2)C(=O)N[C@H](C)CCc2ccc(F)cc2O[C@H](C)CN[C@@H](C2(C)CC2)C(=O)N1C (some centres unmarked) [Compound 1871],10 to 100 nM
5,CC(O)[C@H]1C(=O)N[C@H](Cc2ccc3ccccc3c2)C(=O)NCCCc2cccnc2OCCN[C@@H](C2(C)CC2)C(=O)N1C (some centres unmarked) [Compound 1880],1 to 10 nM
6,CC(C)[C@@H]1NCCOc2cc(F)ccc2CCC(CC(F)(F)F)NC(=O)[C@@H](Cc2c[nH]c3ccccc23)NC(=O)[C@H](C(C)O)N(C)C1=O (some centres unmarked) [Compound 1885],100 to 500 nM
7,CC[C@@H]1CCc2c(cccc2C(F)(F)F)OCCN[C@@H](C(C)C)C(=O)N(C)[C@@H](C(C)O)C(=O)N[C@H](Cc2ccccc2)C(=O)N1 (some centres unmarked) [Compound 1888],> 500 nM
8,CC[C@@H]1CCc2c(C#N)cccc2OCCN[C@@H](C(C)C)C(=O)N(C)[C@@H](C(C)O)C(=O)N[C@H](Cc2ccccc2)C(=O)N1 (some centres unmarked) [Compound 1889],100 to 500 nM
9,CC[C@@H]1CCc2c(cccc2C(F)(F)F)OCCN[C@@H](C(C)C)C(=O)N(C)[C@@H](C(C)O)C(=O)N[C@H](Cc2c[nH]c3ccccc23)C(=O)N1 (some centres unmarked) [Compound 1891],100 to 500 nM
10,CC[C@@H]1CCc2c(cccc2C(F)(F)F)OCCN[C@@H](C(C)C)C(=O)N(C)[C@@H](C(C)O)C(=O)N[C@H](Cc2ccc(F)cc2)C(=O)N1 (some centres unmarked) [Compound 1892],> 500 nM
11,CC[C@@H]1CCc2c(C#N)cccc2OCCN[C@@H](C2(C)CC2)C(=O)N(C)[C@@H](C(C)O)C(=O)N[C@H](Cc2ccccc2)C(=O)N1 (some centres unmarked) [Compound 1895],100 to 500 nM
12,CC[C@@H]1CCc2c(C#N)cccc2OCCN[C@@H](C(C)C)C(=O)N(C)[C@@H](C(C)O)C(=O)N[C@H](Cc2c[nH]c3ccccc23)C(=O)N1 (some centres unmarked) [Compound 1896],100 to 500 nM
13,CC[C@@H]1CCc2c(C#N)cccc2OCCN[C@@H](C(C)C)C(=O)N(C)[C@@H](C(C)O)C(=O)N[C@H](Cc2ccc(F)cc2)C(=O)N1 (some centres unmarked) [Compound 1897],100 to 500 nM
14,CC(C)[C@@H]1NCCOc2ncccc2CC[C@@H](C)NC(=O)[C@@H](Cc2ccccc2)NC(=O)[C@H](C(C)O)N(C)C1=O (some centres unmarked) [Compound 1906],10 to 100 nM
15,CC(O)[C@H]1C(=O)N[C@H](Cc2ccccc2)C(=O)N[C@H](C)CCc2cccnc2OCCN[C@@H](C2(C)CC2)C(=O)N1C (some centres unmarked) [Compound 1907],10 to 100 nM
16,CC[C@@H]1CCc2c(cccc2C(F)(F)F)OCCN[C@@H](C2(C)CC2)C(=O)N(C)[C@@H](C(C)O)C(=O)N[C@H](Cc2ccccc2)C(=O)N1 (some centres unmarked) [Compound 1912],> 500 nM
17,CC[C@@H]1CCc2ccc(F)cc2OCCN[C@@H](C2(C)CC2)C(=O)N(C)[C@@H](C(C)O)C(=O)N[C@H](Cc2ccc(F)cc2)C(=O)N1 (some centres unmarked) [Compound 1913],10 to 100 nM
18,CC(O)C1C(=O)NC(Cc2ccccc2)C(=O)NC(CC(F)(F)F)CCc2ccc(F)cc2OCCNC(C2(C)CC2)C(=O)N1C (centres unmarked) [Compound 1921],100 to 500 nM
